ChEMBL document CHEMBL3112508, “IV. Discovery of CXCR3 antagonists substituted with heterocycles as amide surrogates: improved PK, hERG and metabolic profiles” (Bioorg Med Chem Lett, 2014)

Molecular target: Voltage-gated inwardly rectifying potassium channel KCNH2 (Homo sapiens, UniProt Q12809)
Assay: Inhibition of human ERG channel by Rb efflux assay
Conditions: not given

Voltage-gated inwardly rectifying potassium channel KCNH2, sequence (Q12809 whole entry): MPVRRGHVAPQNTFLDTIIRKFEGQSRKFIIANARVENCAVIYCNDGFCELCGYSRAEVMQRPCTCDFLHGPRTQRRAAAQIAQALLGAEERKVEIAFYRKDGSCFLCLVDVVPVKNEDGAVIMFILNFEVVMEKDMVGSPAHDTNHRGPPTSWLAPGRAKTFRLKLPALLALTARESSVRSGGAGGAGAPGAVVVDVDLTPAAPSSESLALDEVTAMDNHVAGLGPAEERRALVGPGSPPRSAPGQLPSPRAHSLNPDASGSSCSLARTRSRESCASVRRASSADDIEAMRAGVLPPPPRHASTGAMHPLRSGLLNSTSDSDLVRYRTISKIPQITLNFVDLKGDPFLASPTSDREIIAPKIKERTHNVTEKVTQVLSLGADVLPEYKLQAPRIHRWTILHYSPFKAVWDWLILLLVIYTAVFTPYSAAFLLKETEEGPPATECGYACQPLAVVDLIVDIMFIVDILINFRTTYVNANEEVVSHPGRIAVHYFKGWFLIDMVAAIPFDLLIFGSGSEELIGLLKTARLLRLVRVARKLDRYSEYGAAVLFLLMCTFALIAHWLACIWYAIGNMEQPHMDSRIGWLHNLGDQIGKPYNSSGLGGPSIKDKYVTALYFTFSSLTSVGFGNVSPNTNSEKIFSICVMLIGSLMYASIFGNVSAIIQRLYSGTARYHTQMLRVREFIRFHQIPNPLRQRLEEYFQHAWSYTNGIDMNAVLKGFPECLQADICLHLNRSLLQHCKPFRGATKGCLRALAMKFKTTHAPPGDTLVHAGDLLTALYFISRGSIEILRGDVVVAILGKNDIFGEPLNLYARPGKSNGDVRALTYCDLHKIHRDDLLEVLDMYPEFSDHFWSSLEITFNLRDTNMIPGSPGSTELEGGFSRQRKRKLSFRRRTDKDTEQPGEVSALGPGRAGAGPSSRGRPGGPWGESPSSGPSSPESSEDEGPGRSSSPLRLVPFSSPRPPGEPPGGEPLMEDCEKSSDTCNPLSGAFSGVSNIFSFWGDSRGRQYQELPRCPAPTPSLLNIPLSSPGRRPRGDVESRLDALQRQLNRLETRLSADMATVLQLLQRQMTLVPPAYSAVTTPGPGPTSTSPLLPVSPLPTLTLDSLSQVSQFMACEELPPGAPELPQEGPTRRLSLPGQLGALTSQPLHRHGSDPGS

| Structure (SMILES) | inhibition (INH) [%] |
| --- | --- |
| CC[C@H]1CN(c2nc(N)c(C(N)=O)nc2Cl)CCN1C1CCN(Cc2ccc(Cl)cc2)CC1 | > 90 |
| CCNc1nnc(-c2cnc(N3CCN(C4CCN(C(=O)c5ccc(Cl)nc5N)CC4)[C@@H](CC)C3)c(C(C)C)n2)o1 | 8 |
| CC[C@H]1CN(c2ncc(-c3ncc[nH]3)nc2C)[C@H](C)CN1C1CCN(C(=O)c2ccc(Cl)cc2)CC1 | 36 |
| CCNc1nnc(-c2cnc(N3CCN(C4CCN(C(=O)c5ccc(Cl)nc5N)CC4)[C@@H](CC)C3)c(C(F)(F)F)n2)o1 | 43 |
| CC[C@H]1CN(c2nc(N)c(-c3nnc(C4CC4)o3)nc2Cl)CCN1C1CCN(C(=O)c2ccc(Cl)nc2N)CC1 | 72 |
| CC[C@H]1CN(c2nc(N)c(-c3nnc(NCCO)o3)nc2Cl)CCN1C1CCN(C(=O)c2ccc(Cl)nc2N)CC1 | 0 |
| CC[C@H]1CN(c2nc(N)c(-c3nnc(NS(C)(=O)=O)o3)nc2Cl)CCN1C1CCN(C(=O)c2ccc(Cl)nc2N)CC1 | 5 |
| CCNc1nnc(-c2cnc(N3C[C@H](CC)N(C4CCN(C(=O)c5ccc(Cl)cc5)CC4)C[C@H]3C)c(C)n2)o1 | 25 |
| CCNc1nnc(-c2cnc(N3CCN(C4CCN(C(=O)c5ccc(Cl)cc5)CC4)[C@@H](CC)C3)c(C)n2)o1 | 40 |
| CC[C@H]1CN(c2nc(N)c(-c3nnc(NC)o3)nc2Cl)CCN1C1CCN(C(=O)c2ccc(Cl)nc2N)CC1 | 39 |
| CC[C@H]1CN(c2ncc(-c3nnc(N)o3)nc2C)[C@H](C)CN1C1CCN(C(=O)c2ccc(Cl)cc2)CC1 | 0 |
| CC[C@H]1CN(c2nc(N)c(-c3nnc(N(C)C)o3)nc2Cl)CCN1C1CCN(C(=O)c2ccc(Cl)nc2N)CC1 | 67 |
| CCNc1nnc(-c2cnc(N3CCN(C4CCN(C(=O)c5ccc(Cl)nc5N)CC4)[C@@H](CC)C3)c(C3CC3)n2)o1 | 14 |
| CCNc1nnc(-c2cnc(N3CCN(C4CCN(C(=O)c5ccc(Cl)nc5N)CC4)[C@@H](CC)C3)c(C)n2)o1 | 12 |
| CCNc1nnc(-c2cnc(N3CCN(C4CCN(C(=O)c5ccc(Cl)nc5N)CC4)[C@@H](CC)C3)c(CC)n2)o1 | 4 |
| CC[C@H]1CN(c2nc(N)c(-c3nnc(CO)o3)nc2Cl)CCN1C1CCN(C(=O)c2ccc(Cl)nc2N)CC1 | 16 |
| CCNc1nnc(-c2cnc(N3C[C@H](CC)N(C4CCN(C(=O)c5ccc(Cl)nc5N)CC4)C[C@H]3C)c(C(F)(F)F)n2)o1 | 22 |
| CC[C@H]1CN(c2ncc(-c3nnc[nH]3)nc2C)[C@H](C)CN1C1CCN(C(=O)c2ccc(Cl)cc2)CC1 | 4 |

Tested on: Rattus norvegicus
Assay: AUC in rat at 10 mg/kg, po after 6 hrs
Type: ADME, organism-based, Plasma
Parameters: time < 6 hr, dose 10 mg/kg, route oral
Conditions: in vivo

| Structure (SMILES) | AUC [uM.hr/ml] |
| --- | --- |
| CC[C@H]1CN(c2ncc(-c3ncc[nH]3)nc2C)[C@H](C)CN1C1CCN(C(=O)c2ccc(Cl)cc2)CC1 | 0.8 |
| CCNc1nnc(-c2cnc(N3CCN(C4CCN(C(=O)c5ccc(Cl)nc5N)CC4)[C@@H](CC)C3)c(C(F)(F)F)n2)o1 | 4.2 |
| CCNc1nnc(-c2cnc(N3C[C@H](CC)N(C4CCN(C(=O)c5ccc(Cl)cc5)CC4)C[C@H]3C)c(C)n2)o1 | 3.3 |
| CCNc1nnc(-c2cnc(N3CCN(C4CCN(C(=O)c5ccc(Cl)cc5)CC4)[C@@H](CC)C3)c(C)n2)o1 | 0.9 |
| CC[C@H]1CN(c2ncc(-c3nnc(N)o3)nc2C)[C@H](C)CN1C1CCN(C(=O)c2ccc(Cl)cc2)CC1 | 1 |
| CCNc1nnc(-c2cnc(N3CCN(C4CCN(C(=O)c5ccc(Cl)nc5N)CC4)[C@@H](CC)C3)c(C)n2)o1 | 0.1 |
| CCNc1nnc(-c2cnc(N3C[C@H](CC)N(C4CCN(C(=O)c5ccc(Cl)nc5N)CC4)C[C@H]3C)c(C(F)(F)F)n2)o1 | 5.1 |
| CC[C@H]1CN(c2ncc(-c3nnc[nH]3)nc2C)[C@H](C)CN1C1CCN(C(=O)c2ccc(Cl)cc2)CC1 | 4.9 |

Molecular target: T1, C-X-C chemokine receptor type 3 (Homo sapiens, UniProt P49682)
T1 sequence (P49682 whole entry): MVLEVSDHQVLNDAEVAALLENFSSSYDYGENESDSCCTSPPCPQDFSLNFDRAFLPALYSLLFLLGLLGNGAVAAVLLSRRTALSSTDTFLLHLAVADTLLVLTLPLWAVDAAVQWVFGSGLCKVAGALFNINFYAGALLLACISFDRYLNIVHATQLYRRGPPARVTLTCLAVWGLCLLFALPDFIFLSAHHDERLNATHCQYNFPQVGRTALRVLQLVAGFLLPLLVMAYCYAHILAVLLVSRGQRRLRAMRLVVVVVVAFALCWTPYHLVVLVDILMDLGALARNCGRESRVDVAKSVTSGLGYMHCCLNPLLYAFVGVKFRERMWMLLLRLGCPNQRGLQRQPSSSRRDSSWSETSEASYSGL
Assay: Binding affinity to human CXCR3 receptor
Conditions: not given

| Structure (SMILES) | IC50 [nM] |
| --- | --- |
| CCNc1nnc(-c2cnc(N3CCN(C4CCN(C(=O)c5ccc(Cl)nc5N)CC4)[C@@H](CC)C3)c(C(C)C)n2)o1 | 437 |
| CC[C@H]1CN(c2ncc(-c3ncc[nH]3)nc2C)[C@H](C)CN1C1CCN(C(=O)c2ccc(Cl)cc2)CC1 | 1.6 |
| CCNc1nnc(-c2cnc(N3CCN(C4CCN(C(=O)c5ccc(Cl)nc5N)CC4)[C@@H](CC)C3)c(C(F)(F)F)n2)o1 | 1.5 |
| CC[C@H]1CN(c2nc(N)c(-c3nnc(C4CC4)o3)nc2Cl)CCN1C1CCN(C(=O)c2ccc(Cl)nc2N)CC1 | 6 |
| CC[C@H]1CN(c2nc(N)c(-c3nnc(NCCO)o3)nc2Cl)CCN1C1CCN(C(=O)c2ccc(Cl)nc2N)CC1 | 3.9 |
| CC[C@H]1CN(c2nc(N)c(-c3nnc(NS(C)(=O)=O)o3)nc2Cl)CCN1C1CCN(C(=O)c2ccc(Cl)nc2N)CC1 | 2300 |
| CCNc1nnc(-c2cnc(N3C[C@H](CC)N(C4CCN(C(=O)c5ccc(Cl)cc5)CC4)C[C@H]3C)c(C)n2)o1 | 2.8 |
| CCNc1nnc(-c2cnc(N3CCN(C4CCN(C(=O)c5ccc(Cl)cc5)CC4)[C@@H](CC)C3)c(C)n2)o1 | 1.2 |
| CC[C@H]1CN(c2nc(N)c(-c3nnc(NC)o3)nc2Cl)CCN1C1CCN(C(=O)c2ccc(Cl)nc2N)CC1 | 1.6 |
| CC[C@H]1CN(c2ncc(-c3nnc(N)o3)nc2C)[C@H](C)CN1C1CCN(C(=O)c2ccc(Cl)cc2)CC1 | 6.4 |
| CC[C@H]1CN(c2nc(N)c(-c3nnc(N(C)C)o3)nc2Cl)CCN1C1CCN(C(=O)c2ccc(Cl)nc2N)CC1 | 23.6 |
| CCNc1nnc(-c2cnc(N3CCN(C4CCN(C(=O)c5ccc(Cl)nc5N)CC4)[C@@H](CC)C3)c(C3CC3)n2)o1 | 24.5 |
| CCNc1nnc(-c2cnc(N3CCN(C4CCN(C(=O)c5ccc(Cl)nc5N)CC4)[C@@H](CC)C3)c(C)n2)o1 | 1.2 |
| CCNc1nnc(-c2cnc(N3CCN(C4CCN(C(=O)c5ccc(Cl)nc5N)CC4)[C@@H](CC)C3)c(CC)n2)o1 | 3.8 |
| CC[C@H]1CN(c2nc(N)c(-c3nnc(CO)o3)nc2Cl)CCN1C1CCN(C(=O)c2ccc(Cl)nc2N)CC1 | 2.2 |
| CCNc1nnc(-c2cnc(N3C[C@H](CC)N(C4CCN(C(=O)c5ccc(Cl)nc5N)CC4)C[C@H]3C)c(C(F)(F)F)n2)o1 | 3.6 |
| CC[C@H]1CN(c2ncc(-c3nnc[nH]3)nc2C)[C@H](C)CN1C1CCN(C(=O)c2ccc(Cl)cc2)CC1 | 33.8 |

Tested on: Rattus norvegicus
Assay: AUC in rat at 10 mg/kg, po
Type: ADME, organism-based, Plasma
Parameters: dose 10 mg/kg, route oral
Conditions: in vivo

| Structure (SMILES) | AUC [uM.hr/ml] |
| --- | --- |
| CC[C@H]1CN(c2nc(N)c(C(N)=O)nc2Cl)CCN1C1CCN(Cc2ccc(Cl)cc2)CC1 | 5.1 |
| CC[C@H]1CN(c2ncc(-c3ncc[nH]3)nc2C)[C@H](C)CN1C1CCN(C(=O)c2ccc(Cl)cc2)CC1 | 7.3 |
| CCNc1nnc(-c2cnc(N3CCN(C4CCN(C(=O)c5ccc(Cl)nc5N)CC4)[C@@H](CC)C3)c(C(F)(F)F)n2)o1 | 25.3 |
| CC[C@H]1CN(c2nc(N)c(-c3nnc(NCCO)o3)nc2Cl)CCN1C1CCN(C(=O)c2ccc(Cl)nc2N)CC1 | 0.1 |
| CCNc1nnc(-c2cnc(N3C[C@H](CC)N(C4CCN(C(=O)c5ccc(Cl)cc5)CC4)C[C@H]3C)c(C)n2)o1 | 16.6 |
| CCNc1nnc(-c2cnc(N3CCN(C4CCN(C(=O)c5ccc(Cl)cc5)CC4)[C@@H](CC)C3)c(C)n2)o1 | 16.4 |
| CC[C@H]1CN(c2nc(N)c(-c3nnc(NC)o3)nc2Cl)CCN1C1CCN(C(=O)c2ccc(Cl)nc2N)CC1 | 5.5 |
| CC[C@H]1CN(c2ncc(-c3nnc(N)o3)nc2C)[C@H](C)CN1C1CCN(C(=O)c2ccc(Cl)cc2)CC1 | 12.7 |
| CCNc1nnc(-c2cnc(N3CCN(C4CCN(C(=O)c5ccc(Cl)nc5N)CC4)[C@@H](CC)C3)c(C)n2)o1 | 2.6 |
| CC[C@H]1CN(c2nc(N)c(-c3nnc(CO)o3)nc2Cl)CCN1C1CCN(C(=O)c2ccc(Cl)nc2N)CC1 | 2.5 |
| CCNc1nnc(-c2cnc(N3C[C@H](CC)N(C4CCN(C(=O)c5ccc(Cl)nc5N)CC4)C[C@H]3C)c(C(F)(F)F)n2)o1 | 30.2 |
| CC[C@H]1CN(c2ncc(-c3nnc[nH]3)nc2C)[C@H](C)CN1C1CCN(C(=O)c2ccc(Cl)cc2)CC1 | 26.5 |
